Like-named read-outs stand apart in the source and are kept apart here. Each block holds one compound with its values, some of them ahead of it.
Legend:
[1] = human, in vivo, 200 mg
Text: The MR formulation of IMB-1018972 to be administered on Day 13 under fed conditions was 1 of the 4 MR formulations administered on Days 1, 4, 7, and 10 under fasted conditions.
The effect of food on the relative oral bioavailability of IMB-1018972 following a single oral administration was explored. This occurred in the single-dose MR part where subjects received the same dose, first under fasted conditions and then under fed conditions.

[2] = human, in vivo, 150 mg
[3] = Decomposition kinetics of CV-8972 in media simulating the GI tract, 37° C., 0.2 mg/mL (HPLC); type: physicochemical
Experimental: The solution stability of CV-8972 was evaluated in multiple media currently used to simulate dissolution and stability conditions in the various sections of the GI tract. As CV-8972 will be subject to hydrolysis as it is dissolving in the GI tract, it will be important to understand these kinetics in terms of designing instant and controlled-release formulations. HPLC methods were used to perform these assessments.

[4] = Phase 1 FIH study, single-dose MR part: safety and tolerability; type: in vivo, human
[5] = Phase 1 FIH study: overall safety (vital signs, 12-lead ECG); type: in vivo, human; conditions: after administration as the MR formulations, healthy subjects
Experimental: These assessments were made using an automated device. Body temperature and respiratory rate were measured subsequently.
Safety and tolerability were assessed through AEs, clinical laboratory, vital signs, ECGs, continuous cardiac monitoring (telemetry), and physical examination findings, and any other parameter that was relevant for safety assessment.

[6] = Phase 1 FIH study, multiple-dose MR part: safety and tolerability; type: in vivo, human
[7] = pH stability profile of a 1 mg/mL solution of CV-8972 at 23° C.; type: physicochemical
Experimental: The pH stability profile is summarized and shown in Table 2 for a 1 mg/mL solution of CV-8972 at 23° C.
The hydrolysis proceeds via the first step shown in FIG. 1, as Nicotinic acid and CV-8814 are the only decomposition products generated. The optimal pH for solution stability appears to be around pH 5-5.1 for a 1 mg/mL solution with acid-catalyzed hydrolysis increasing at pH values less than 5.0 and base-catalyzed hydrolysis increasing above pH 5.0.

[8] = BCS classification from solubility and permeability
Text: CV-8972 can therefore be considered as BCS Class 1 per se, but the pre-systemic metabolism to CV-8814 and possibly other metabolites may complicate and impact the actual biopharmaceutical absorption profile found in humans.

effect of food on exposure parameters Cmax, AUC0-t and AUC0-inf [1]: No evidence for an effect of food
food effect estimate for AUC0-inf (ratio of geometric means fed/fasted) [1]: 0.97
food effect estimate for AUC0-t (ratio of geometric means fed/fasted) [1]: 0.99
food effect estimate for Cmax (ratio of geometric means fed/fasted) [1]: 1.10
effect of food on exposure parameters Cmax, AUC0-t and AUC0-inf [2]: No evidence for an effect of food
Structure (SMILES): COc1ccc(CN2CCNCC2)c(OC)c1OC [trimetazidine, reference compound]

half-life at 0.2 mg/mL ([3]; 0.1M HCl, pH 1, 0.1M HCl, pH 1.0, no surfactants): 188 min
half-life at 0.2 mg/mL ([3]; FaSSGF, pH 1.6, FaSSGF, pH 1.6): 2910 min
half-life at 0.2 mg/mL ([3]; FaSSIF, pH 6.5, FaSSIF, pH 6.5): 810 min
half-life at 0.2 mg/mL ([3]; FeSSIF (medium simulating the GI tract), pH 5.8, FeSSIF, pH 5.8): 5980 min
half-life at 0.2 mg/mL ([3]; pH 6, BiCarb adj (0.1M HCl neutralized with sodium bicarbonate), pH 6-8.2): 91.2 min
half-life at 1 mg/mL ([7]; 20 mM ammonium acetate buffer, pH 5.05, 20 mM Am. Acetate): 27.4 days
half-life at 1 mg/mL ([7]; 20 mM phosphate buffer, pH 3.52, 20 mM Phos): 10.6 days
half-life at 1 mg/mL ([7]; 20 mM phosphate buffer, pH 6.5, 20 mM Phos): 2.58 days
half-life at 1 mg/mL ([7]; 20 mM phosphate buffer, pH 6.88, 20 mM Phos): 1.4 days
1st order Kobs ([7]; pH 2.74, Water): 0.00516 hr − 1
half-life at 1 mg/mL ([7]; pH 2.74, Water): 5.6 days
1st order Kobs ([7]; pH 3.52, 20 mM Phos): 0.00273 hr − 1
1st order Kobs ([7]; pH 5.05, 20 mM Am. Acetate): 0.00105 hr − 1
1st order Kobs ([7]; pH 5.64, 20 mM Phos): 0.00248 hr − 1
1st order Kobs ([7]; pH 6.5, 20 mM Phos): 0.01119 hr − 1
1st order Kobs ([7]; pH 6.88, 20 mM Phos): 0.02064 hr − 1
half-life at 1 mg/mL ([7]; phosphate buffer, pH 5.64, 20 mM Phos): 11.7 days
BCS class [8]: BCS Class 1
Structure (SMILES): COc1ccc(CN2CCN(CCOC(=O)c3cccnc3)CC2)c(OC)c1OC [CV-8972, 2-[4-[(2,3,4-trimethoxyphenyl)methyl]piperazin-1-yl]ethyl pyridine-3-carboxylate]
number of TEAEs of mild severity ([4]; of 37 TEAEs): Thirty-six
number of TEAEs of moderate severity ([4]; of 37 TEAEs): 1
tolerability ([4]; single doses of 50 mg and 200 mg MR formulations (4-hour, 8-hour) fasted, 200 mg 8-hour MR fed, healthy subjects): well tolerated
subjects with TEAEs considered not related to the study drug ([4]; single-dose MR part): 83.3%
subjects with TEAEs considered related to the study drug ([4]; single-dose MR part): 33.3%
subjects with TEAEs, SOC gastrointestinal disorders ([4]; single-dose MR part): 33.3%
subjects with TEAEs, SOC general disorders and administration site conditions ([4]; single-dose MR part): 58.3%
subjects with TEAEs, SOC nervous system disorders ([4]; single-dose MR part): 58.3%
subjects with drug-related TEAEs of pollakiuria ([4]; single-dose MR part): 16.7%
subjects reporting TEAEs ([4]; single-dose MR part, 12 subjects): 83.3%
hemodynamic changes and QTc-interval [5]: no findings of hemodynamic changes, nor changes in the QTc-interval
subjects reporting TEAEs ([6]; 200 mg 8-hour MR formulation q12h fed, 5 days, 12 subjects): 100%
number of drug-related TEAEs of flushing (vascular disorders) ([6]; multiple-dose MR part): 2
subjects with TEAEs considered not related to the study drug ([6]; multiple-dose MR part): 75%
subjects with TEAEs considered related to the study drug ([6]; multiple-dose MR part): 58.3%
subjects with TEAEs, SOC gastrointestinal disorders ([6]; multiple-dose MR part): 41.7%
subjects with TEAEs, SOC general disorders and administration site conditions ([6]; multiple-dose MR part): 33.3%
subjects with TEAEs, SOC musculoskeletal and connective tissue disorders ([6]; multiple-dose MR part): 33.3%
subjects with TEAEs, SOC nervous system disorders ([6]; multiple-dose MR part): 58.3%
subjects with TEAEs, SOC renal and urinary disorders (pollakiuria) ([6]; multiple-dose MR part): 33.3%
subjects with drug-related TEAEs of flushing (vascular disorders) ([6]; multiple-dose MR part): 16.7%
subjects with drug-related TEAEs of pollakiuria ([6]; multiple-dose MR part): 33.3%
subjects with drug-related TEAEs, nervous system disorders ([6]; multiple-dose MR part): 16.7%

Cmax higher under fed relative to fasted conditions [1]: approximately 42%
effect of food on exposure parameters AUC0-t and AUC0-inf [1]: No evidence for an effect of food
food effect estimate for AUC0-inf (ratio of geometric means fed/fasted) [1]: 1.16
food effect estimate for AUC0-t (ratio of geometric means fed/fasted) [1]: 1.16
food effect estimate for Cmax (ratio of geometric means fed/fasted) [1]: 1.42
Cmax lower under fed relative to fasted conditions [2]: approximately 36%
effect of food on exposure parameters AUC0-t and AUC0-inf [2]: No evidence for an effect of food
Structure (SMILES): COc1ccc(CN2CCN(CCO)CC2)c(OC)c1OC [CV-8814, 2-[4-[(2,3,4-trimethoxyphenyl)methyl]piperazin-1-yl]ethanol]
